Converted amounts (≈) assume the structure as drawn.
How the values were obtained:
[1] = system: Escherichia coli (ATCC 25922); assay: Antibacterial MIC, broth microdilution (CLSI); type: cell-based; details: Escherichia coli, ATCC25922; read-out: MIC80 E. coli
[2] = system: Enterococcus faecalis (ATCC 51299); assay: Antibacterial MIC, broth microdilution (CLSI); type: cell-based; details: Enterococcus faecalis, ATCC51299; read-out: MIC80 E. faecalis
[3] = system: Genomic double stranded DNA (salmon); assay: Fluorescence intercalator displacement (FID) assay, SYBR-safe probe; details: 20 μM compound, 30° C., lower % = stronger binding
Protocol: (§1) The ability of compounds of the invention to bind to DNA and RNA was assessed using a fluorescence intercalator displacement assay. Genomic double stranded DNA (salmon) or PolyAU double stranded RNA is treated with probe molecule (Sybr-Safe) that increases its fluorescence upon binding to nucleic acids.
(§2) polyAU RNA (Polyadenylic acid—Polyuridylic acid sodium salt, double-stranded homopolymer, P1537, Merck) or genomic DNA (Deoxyribonucleic acid sodium salt from salmon testes, D1626, Merck) was dissolved in 1 mM pH 7.4 phosphate buffer (containing 0.27 mM potassium chloride, 13.7 mM sodium chloride) to a concentration of 1 mg/mL in, SybrSafe (SYBR® Safe DNA Gel Stain, ×10,000 in DMSO, S33102 Invitrogen) was used as supplied by the manufacturer in DMSO, and compounds of the invention were prepared as 10 mM stocks in DMSO. These stock solutions were diluted appropriately with each other and 1 mM phosphate buffer to give test solutions comprised of 20 μM compound of the invention, 12500-fold dilution of SybrSafe and 3.76 ng/mL RNA/DNA. Control solutions of RNA/DNA and SybrSafe, RNA/DNA, and SybrSafe at these concentrations were also prepared. Test and control solutions were heated to 30° C. and the fluorescence of each solution was measured using the SYBER filter setting of a StepOnePlus using melt analysis mode (StepOne Software v2.3). The reduction of fluorescence due to the binding of the compound of the invention to the RNA/DNA was calculated as a normalised percentage based on the fluorescence measured due to the control with SybrSafe and RNA/DNA as maximum and the control with only SybrSafe as minimum.
(§3) A reduction in normalised % is indicative of probe displacement and thus strong nucleic acid binding.

[4] = system: PolyAU double stranded RNA; assay: as above; details: 20 μM compound, 30° C., lower % = stronger binding
Protocol: as §1, §2, §3

[5] = system: Staphylococcus aureus (ATCC 43300); assay: Antibacterial MIC, broth microdilution (CLSI); type: cell-based; details: Staphylococcus aureus, ATCC43300; read-out: MIC80 S. aureus
T. vaginalis = assay: Trichomonas resorufin assay; type: cell-based; details: Trichomonas vaginalis, read-out: IC50 T. vaginalis

Structure (SMILES): CN(C)c1ccc(/C=C/c2ccc(C(=O)Nc3c[nH]c(C(=O)Nc4cc(C(=O)NCCN5CCOCC5)n(C)c4)c3)cn2)cc1 [IIIb2, (E)-6-(4-(dimethylamino)styryl)-N-(5-((1-methyl-5-((2-morpholinoethyl)carbamoyl)-1H-pyrrol-3-yl)carbamoyl)-1H-pyrrol-3-yl)nicotinamide]
- MIC80 [1]: > 100 µM
- MIC80 [2]: > 100 µM
- % Normalised Fluorescence with gDNA [3]: 31%
- % Normalised Fluorescence with polyAU RNA [4]: 85%
- MIC80 [5]: 5 to 25 µM (≈ 3.05 to 15.3 µg/mL)

Structure (SMILES): Cn1cc(NC(=O)c2cc(NC(=O)c3ccc(/C=C/c4cnc5ccccc5c4)cc3)cn2C)cc1C(=O)NCCCCN1CCCCC1 [IVa11, (E)-1-methyl-4-(1-methyl-4-(4-(2-(quinolin-3-yl)vinyl)benzamido)-1H-pyrrole-2-carboxamido)-N-(4-(piperidin-1-yl)butyl)-1H-pyrrole-2-carboxamide]
- MIC80 [1]: > 100 µM
- MIC80 [2]: 5 to 25 µM (≈ 3.29 to 16.4 µg/mL)
- % Normalised Fluorescence with gDNA [3]: 42%
- % Normalised Fluorescence with polyAU RNA [4]: 68%
- MIC80 [5]: 5 to 25 µM (≈ 3.29 to 16.4 µg/mL)

Structure (SMILES): Cn1cc(NC(=O)c2cc(NC(=O)c3ccc(/C=C/c4cnc5ccccc5c4)cc3)cn2C)cc1C(=O)NCCCCN1CCCC1 [IVa12, (E)-1-methyl-4-(1-methyl-4-(4-(2-(quinolin-3-yl)vinyl)benzamido)-1H-pyrrole-2-carboxamido)-N-(4-(pyrrolidin-1-yl)butyl)-1H-pyrrole-2-carboxamide]
- MIC80 [1]: > 100 µM
- MIC80 [2]: < 5 µM
- % Normalised Fluorescence with gDNA [3]: 50%
- % Normalised Fluorescence with polyAU RNA [4]: 71%
- MIC80 [5]: 5 to 25 µM (≈ 3.22 to 16.1 µg/mL)

Structure (SMILES): CNC(=O)c1cc(NC(=O)c2cc(NC(=O)c3ccc(/C=C/c4ccc(N(C)C)cc4)nc3)cn2C)cn1C [IVa13, (E)-6-(4-(dimethylamino)styryl)-N-(1-methyl-5-((1-methyl-5-(methylcarbamoyl)-1H-pyrrol-3-yl)carbamoyl)-1H-pyrrol-3-yl)nicotinamide]
- MIC80 [1]: > 100 µM
- MIC80 [2]: < 5 µM
- % Normalised Fluorescence with gDNA [3]: 80%
- % Normalised Fluorescence with polyAU RNA [4]: 83%
- MIC80 [5]: < 5 µM

Structure (SMILES): CN(C)c1ccc(/C=C/c2ccc(C(=O)Nc3cc(C(=O)Nc4cc(C(=O)NCCCCN5CCCCC5)n(C)c4)n(C)c3)cn2)cc1 [IVa14, (E)-6-(4-(dimethylamino)styryl)-N-(1-methyl-5-((1-methyl-5-((4-(piperidin-1-yl)butyl)carbamoyl)-1H-pyrrol-3-yl)carbamoyl)-1H-pyrrol-3-yl)nicotinamide]
- MIC80 [1]: > 100 µM
- MIC80 [2]: 25 to 100 µM (≈ 16.3 to 65.1 µg/mL)
- % Normalised Fluorescence with gDNA [3]: 19%
- % Normalised Fluorescence with polyAU RNA [4]: 12%
- MIC80 [5]: 5 to 25 µM (≈ 3.25 to 16.3 µg/mL)

Structure (SMILES): CN(C)c1ccc(/C=C/c2ccc(C(=O)Nc3cc(C(=O)Nc4cc(C(=O)NCCCCN5CCCC5)n(C)c4)n(C)c3)cn2)cc1 [IVa15, (E)-6-(4-(dimethylamino)styryl)-N-(1-methyl-5-((1-methyl-5-((4-(pyrrolidin-1-yl)butyl)carbamoyl)-1H-pyrrol-3-yl)carbamoyl)-1H-pyrrol-3-yl)nicotinamide]
- MIC80 [1]: > 100 µM
- MIC80 [2]: 25 to 100 µM (≈ 15.9 to 63.7 µg/mL)
- % Normalised Fluorescence with gDNA [3]: 15%
- % Normalised Fluorescence with polyAU RNA [4]: 8%
- MIC80 [5]: > 100 µM

Structure (SMILES): Cn1cc(NC(=O)c2ccc(/C=C/c3cnc4ccccc4c3)cc2)cc1C(=O)Nc1cc(C(=O)N2CCSCC2)n(C)c1 [IVb2, (E)-1-methyl-N-(1-methyl-5-(thiomorpholine-4-carbonyl)-1H-pyrrol-3-yl)-4-(4-(2-(quinolin-3-yl)vinyl)benzamido)-1H-pyrrole-2-carboxamide]
- MIC80 [1]: > 100 µM
- MIC80 [2]: > 100 µM
- MIC80 [5]: 25 to 100 µM (≈ 15.1 to 60.5 µg/mL)
- IC50 (T. vaginalis): 5 to 50 µM

Structure (SMILES): Cn1cc(NC(=O)c2ccc(/C=C/c3cnc4ccccc4c3)cc2)cc1C(=O)Nc1cc(C(=O)N2CCCCCC2)n(C)c1 [IVb3, (E)-N-(5-(azepane-1-carbonyl)-1-methyl-1H-pyrrol-3-yl)-1-methyl-4-(4-(2-(quinolin-3-yl)vinyl)benzamido)-1H-pyrrole-2-carboxamide]
- MIC80 [1]: > 100 µM
- MIC80 [2]: > 100 µM
- MIC80 [5]: 25 to 100 µM (≈ 15 to 60.1 µg/mL)
- IC50 (T. vaginalis): 5 to 50 µM

Structure (SMILES): CCNC(=N)CCNC(=O)c1cc(NC(=O)c2cc(NC(=O)c3ccc(/C=C/c4ccc(OC)cc4)cc3)cn2C)cn1C [Ia20, (E)-N-(3-(ethylamino)-3-iminopropyl)-4-(4-(4-(4-methoxystyryl)benzamido)-1-methyl-1H-pyrrole-2-carboxamido)-1-methyl-1H-pyrrole-2-carboxamide]
- MIC80 [1]: 25 to 100 µM (≈ 14.9 to 59.6 µg/mL)
- MIC80 [2]: 5 to 25 µM (≈ 2.98 to 14.9 µg/mL)
- % Normalised Fluorescence with gDNA [3]: 3%
- % Normalised Fluorescence with polyAU RNA [4]: 6%
- MIC80 [5]: 5 to 25 µM (≈ 2.98 to 14.9 µg/mL)

Structure (SMILES): CC/N=C(/CCNC(=O)c1cc(NC(=O)c2cc(NC(=O)c3ccc(/C=C/c4ccc5nonc5c4)cc3)cn2C)cn1C)NCC [Ia25, 4-(4-((E)-2-(benzo[c][1,2,5]oxadiazol-5-yl)vinyl)benzamido)-N-(5-(((Z)-3-(ethylamino)-3-(ethylimino)propyl)carbamoyl)-1-methyl-1H-pyrrol-3-yl)-1-methyl-1H-pyrrole-2-carboxamide]
- MIC80 [1]: > 100 µM
- MIC80 [2]: > 100 µM
- % Normalised Fluorescence with gDNA [3]: 28%
- % Normalised Fluorescence with polyAU RNA [4]: 12%
- MIC80 [5]: 25 to 100 µM (≈ 15.9 to 63.6 µg/mL)

Structure (SMILES): CONC(=N)CCNC(=O)c1cc(NC(=O)c2cc(NC(=O)c3ccc(/C=C/c4cnc5ccccc5c4)cc3)cn2C)cn1C [Ia28, (E)-N-(3-imino-3-(methoxyamino)propyl)-1-methyl-4-(1-methyl-4-(4-(2-(quinolin-3-yl)vinyl)benzamido)-1H-pyrrole-2-carboxamido)-1H-pyrrole-2-carboxamide]
- MIC80 [1]: > 100 µM
- MIC80 [2]: < 5 µM
- % Normalised Fluorescence with gDNA [3]: 34%
- % Normalised Fluorescence with polyAU RNA [4]: 66%
- MIC80 [5]: < 5 µM

Structure (SMILES): [H]/N=C(\CCNC(=O)c1cc(NC(=O)c2cc(NC(=O)c3ccc(C=Cc4ccc5nonc5c4)cc3)cn2C)cn1C)NCCOCCOCCOC [Ia40, (E)-4-(4-(2-(benzo[c][1,2,5]oxadiazol-5-yl)vinyl)benzamido)-N-(5-((12-imino-2,5,8-trioxa-11-azatetradecan-14-yl)carbamoyl)-1-methyl-1H-pyrrol-3-yl)-1-methyl-1H-pyrrole-2-carboxamide]
- MIC80 [1]: > 100 µM
- MIC80 [2]: 5 to 25 µM (≈ 3.63 to 18.1 µg/mL)
- % Normalised Fluorescence with gDNA [3]: 32%
- % Normalised Fluorescence with polyAU RNA [4]: 13%
- MIC80 [5]: < 5 µM

Structure (SMILES): CN1CCN(CCNC(=N)CCNC(=O)c2cc(NC(=O)c3cc(NC(=O)c4ccc(/C=C/c5cnc6ccccc6c5)cc4)cn3C)cn2C)CC1 [Ia41, (E)-N-(3-imino-3-((2-(4-methylpiperazin-1-yl)ethyl)amino)propyl)-1-methyl-4-(1-methyl-4-(4-(2-(quinolin-3-yl)vinyl)benzamido)-1H-pyrrole-2-carboxamido)-1H-pyrrole-2-carboxamide]
- MIC80 [1]: > 100 µM
- MIC80 [2]: 25 to 100 µM (≈ 17.9 to 71.5 µg/mL)
- % Normalised Fluorescence with gDNA [3]: 16%
- % Normalised Fluorescence with polyAU RNA [4]: 6%
- MIC80 [5]: 5 to 25 µM (≈ 3.57 to 17.9 µg/mL)

Structure (SMILES): [H]/N=C(\CCNC(=O)c1cc(NC(=O)c2cc(NC(=O)c3ccc(C=Cc4ccc5nonc5c4)cc3)cn2C)cn1C)NCCN1CCN(C)CC1 [Ia42, (E)-4-(4-(2-(benzo[c][1,2,5]oxadiazol-5-yl)vinyl)benzamido)-N-(5-((3-imino-3-((2-(4-methylpiperazin-1-yl)ethyl)amino)propyl)carbamoyl)-1-methyl-1H-pyrrol-3-yl)-1-methyl-1H-pyrrole-2-carboxamide]
- MIC80 [1]: > 100 µM
- MIC80 [2]: 5 to 25 µM (≈ 3.53 to 17.6 µg/mL)
- % Normalised Fluorescence with gDNA [3]: 20%
- % Normalised Fluorescence with polyAU RNA [4]: 4%
- MIC80 [5]: 5 to 25 µM (≈ 3.53 to 17.6 µg/mL)

Structure (SMILES): CCCCCCCCCCCCC[N+](C)(C)CCNC(=O)c1cc(NC(=O)c2cc(NC(=O)c3ccc(/C=C/c4cnc5ccccc5c4)cc3)cn2C)cn1C [Ic12, (E)-N,N-dimethyl-N-(2-(1-methyl-4-(1-methyl-4-(4-(2-(quinolin-3-yl)vinyl)benzamido)-1H-pyrrole-2-carboxamido)-1H-pyrrole-2-carboxamido)ethyl)tridecan-1-aminium]
- % Normalised Fluorescence with gDNA [3]: 94%
- % Normalised Fluorescence with polyAU RNA [4]: 38%

Structure (SMILES): CCCCCCCCCCCCCCCCC[N+](C)(C)CCNC(=O)c1cc(NC(=O)c2cc(NC(=O)c3ccc(/C=C/c4cnc5ccccc5c4)cc3)cn2C)cn1C [Ic16, (E)-N,N-dimethyl-N-(2-(1-methyl-4-(1-methyl-4-(4-(2-(quinolin-3-yl)vinyl)benzamido)-1H-pyrrole-2-carboxamido)-1H-pyrrole-2-carboxamido)ethyl)heptadecan-1-aminium]
- % Normalised Fluorescence with gDNA [3]: 98%
- % Normalised Fluorescence with polyAU RNA [4]: 64%
